Assay results published in patent US20240197871A1, “COMBINATION OF A CAR T CELL THERAPY AND AN IMMUNOMODULATORY COMPOUND FOR TREATMENT OF LYMPHOMA” (Juno Therapeutics, Inc., priority 2021, published 2024).

Tests used:
Ikaros = target: T1, Ikaros (Homo sapiens, UniProt Q13422+Q96SW2); test: Ikaros expression in CAR T cells after six days of chronic stimulation (MFI); format: cell-based; conditions: higher concentrations (e.g., 0.01 μM and 0.1 μM); compared with Compound 2
T1 construct: analyzed by flow cytometry to assess intracellular levels of Ikaros and Aiolos in CAR+ T cells; endogenous in cells; host or cells: primary human CD4+ and CD8+ T cells from healthy donors, lentivirally transduced with an anti-CD19 CAR
Method: (§1) To simulate conditions of chronic stimulation, anti-CD19 CAR-expressing T cells, produced as described in Example 1, were incubated with plate-bound CAR-specific anti-idiotypic antibody (see, e.g., WO2018/023100) and incubated at 37° C. for a period of six days. […] For instance, CAR T cells that were re-challenged with CD19+ tumor cells following the six-day stimulation had reduced IFNγ and IL-2 cytokine production (FIG. 3A) and reduced cytolytic function (FIG. 3B) compared to freshly thawed CAR T cells not subjected to the six-day stimulation.
The ability of Compound C to block or reduce this CAR T cell hypofunctionality following chronic stimulation was assessed. To do so, engineered CAR T cells were concurrently treated with Compound C, Compound 2, or a vehicle control during the six-day stimulation. Stimulated CAR T cells were then harvested, washed twice in media, and re-challenged with Granta-519 lymphoma tumor spheroids (that had been transduced with IncuCyte NucLight Red) in the absence of Compound C, after which cytolytic activity was assessed by loss of red fluorescence over time and averaged measurement of tumor spheroid size at various times following co-culture with CAR-T cells. Cytokine production, Ikaros expression, and gene expression of the CAR T Cells also were assessed. […]

anti-CD19 CAR T cells [1] = test: Proliferation (cell doublings) of stimulated anti-CD19 CAR T cells, IncuCyte; format: cell-based, human
Method: (§2) Anti-CD19 CAR-expressing T cell compositions were generated from three different healthy donors as described in Example 1. Prior to use, cryopreserved CD4+ and CD8+ engineered cell compositions were thawed and combined at approximately a 1:1 CD4:CD8 ratio.
(§3) Following incubation, stimulated CAR T cells were harvested, washed twice in media, and assessed.
Proliferation of T cells during culture with the plate-bound anti-idiotypic antibody was monitored for seven days using an IncuCyte® Live Cell Analysis System (Essen BioScience Inc.), and the number of cell doublings of cells stimulated with 30 μg/mL of anti-idiotypic antibody is shown in FIG. 2B and FIG. 2C for the three donors (mean±SEM).

anti-CD19 CAR T cells [2] = test: Viability of anti-CD19 CAR T cells stimulated with anti-idiotypic antibody (live/dead dye); format: cell-based, human; conditions: Day 3 of culture; 3 or 30 μg/mL anti-idiotypic antibody; three donors
Method: as §2, §3
Viability was assessed at Day 3 of culture by flow cytometry using a live/dead cell dye. As shown in FIG. 2A for the three donors (mean±SEM), the compounds had no effect on cell viability when stimulation was carried out either with 3 μg/mL of anti-idiotypic antibody (left panel) or with 30 μg/mL of anti-idiotypic antibody (right panel).

RL CD19+ tumor cells = test: Cytolytic function: co-culture of anti-CD19 CAR T cells with RL CD19+ tumor cells; format: cell-based; conditions: E:T 1:1
Method: To do so, CAR T cells were plated on ploy-D-lysine plates. CD19+ tumor cells transduced with IncuCyte® NucLight Red (Essen BioScience Inc.) were then added to the CAR T cells in addition to Compound C or vehicle control. Tumor cell number was measured over multiple days.
Treatment with CAR T cells in combination with either immunomodulatory compound led to lower tumor cell numbers than did CAR T cells alone or the compounds alone.

[3] = tested on: Granta-519 lymphoma tumor spheroids; test: Chronic stimulation with concurrent treatment, re-challenge with tumor spheroids; format: cell-based
Method: as §1
The ability of Compound C to block or reduce this CAR T cell hypofunctionality following chronic stimulation was assessed. To do so, engineered CAR T cells were concurrently treated with Compound C, Compound 2, or a vehicle control during the six-day stimulation. Stimulated CAR T cells were then harvested, washed twice in media, and re-challenged with Granta-519 lymphoma tumor spheroids (that had been transduced with IncuCyte NucLight Red) in the absence of Compound C, after which cytolytic activity was assessed by loss of red fluorescence over time and averaged measurement of tumor spheroid size at various times following co-culture with CAR-T cells. Cytokine production, Ikaros expression, and gene expression of the CAR T Cells also were assessed.
FIGS. 3D and 3E show the volume of tumor spheroids co-cultured with CAR T cells that were stimulated in the presence of Compound C after chronic stimulation. As shown in FIG. 3D and FIG. 3E, cytolytic activity during re-challenge was improved by treatment with Compound C at a 1 nM concentration during stimulation (**** P<0.0001).

[4] = tested on: CAR-expressing CD8 T cells; test: T cell memory markers CD27/CCR7 after chronic stimulation (flow cytometry); format: cell-based, human
Method: Similar results are shown in FIG. 7B for a separate experiment in which CAR T cells were chronically stimulated for 7 days in the presence or absence of Compound C. In this experiment, Compound C was present at (i) 50 nM for one day and 1 nM for the remaining six days of stimulation, (ii) 25 nM for one day and 0.5 nM for the remaining six days of stimulation, (iii) 10 nM for all seven days of stimulation, or (iv) 1 nM for all seven days of stimulation. Stimulated CAR T cells were then re-challenged with Raji lymphoma tumor spheroids in the absence of Compound C, after which cytolytic activity was assessed over a four-day period. […] The CAR T cells stimulated for seven days in the presence or absence of Compound C were also analyzed for phenotypic T cell memory markers using flow cytometry following chronic stimulation. […] CD27/CCR7 expression, which is a marker for less differentiated, naïve-like T cells, was highest in CAR-expressing CD8 T cells stimulated in the presence of Compound C at 50 nM for one day and 1 nM for the remaining six days of stimulation (* P<0.05).

T1 sequence (Q13422 whole entry): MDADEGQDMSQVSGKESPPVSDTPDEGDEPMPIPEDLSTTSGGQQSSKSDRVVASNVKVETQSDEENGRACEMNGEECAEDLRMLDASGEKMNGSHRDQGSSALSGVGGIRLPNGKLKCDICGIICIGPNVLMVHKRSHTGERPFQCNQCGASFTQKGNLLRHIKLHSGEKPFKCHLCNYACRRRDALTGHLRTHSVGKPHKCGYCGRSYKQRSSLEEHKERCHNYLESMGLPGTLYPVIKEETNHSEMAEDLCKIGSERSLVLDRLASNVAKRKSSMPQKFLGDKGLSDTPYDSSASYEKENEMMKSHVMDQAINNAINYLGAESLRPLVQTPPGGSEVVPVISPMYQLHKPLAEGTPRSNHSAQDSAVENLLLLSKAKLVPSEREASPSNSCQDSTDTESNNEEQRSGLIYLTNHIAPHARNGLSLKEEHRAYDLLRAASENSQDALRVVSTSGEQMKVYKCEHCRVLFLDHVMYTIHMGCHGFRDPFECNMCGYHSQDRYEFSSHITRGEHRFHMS
T1 sequence (Q96SW2 whole entry): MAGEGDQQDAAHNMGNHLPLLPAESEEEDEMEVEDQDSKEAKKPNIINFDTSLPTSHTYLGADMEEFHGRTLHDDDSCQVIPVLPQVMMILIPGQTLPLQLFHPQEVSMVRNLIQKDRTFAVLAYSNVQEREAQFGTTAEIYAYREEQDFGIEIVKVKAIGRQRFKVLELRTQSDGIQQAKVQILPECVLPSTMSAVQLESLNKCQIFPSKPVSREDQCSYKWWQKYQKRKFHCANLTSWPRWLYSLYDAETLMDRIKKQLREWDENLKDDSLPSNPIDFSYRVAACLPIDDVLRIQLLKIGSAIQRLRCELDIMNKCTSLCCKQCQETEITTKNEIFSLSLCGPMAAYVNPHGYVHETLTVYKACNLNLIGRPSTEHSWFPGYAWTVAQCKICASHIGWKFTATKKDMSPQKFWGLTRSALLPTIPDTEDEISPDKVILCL
T1 sequence (Q16531 whole entry partner): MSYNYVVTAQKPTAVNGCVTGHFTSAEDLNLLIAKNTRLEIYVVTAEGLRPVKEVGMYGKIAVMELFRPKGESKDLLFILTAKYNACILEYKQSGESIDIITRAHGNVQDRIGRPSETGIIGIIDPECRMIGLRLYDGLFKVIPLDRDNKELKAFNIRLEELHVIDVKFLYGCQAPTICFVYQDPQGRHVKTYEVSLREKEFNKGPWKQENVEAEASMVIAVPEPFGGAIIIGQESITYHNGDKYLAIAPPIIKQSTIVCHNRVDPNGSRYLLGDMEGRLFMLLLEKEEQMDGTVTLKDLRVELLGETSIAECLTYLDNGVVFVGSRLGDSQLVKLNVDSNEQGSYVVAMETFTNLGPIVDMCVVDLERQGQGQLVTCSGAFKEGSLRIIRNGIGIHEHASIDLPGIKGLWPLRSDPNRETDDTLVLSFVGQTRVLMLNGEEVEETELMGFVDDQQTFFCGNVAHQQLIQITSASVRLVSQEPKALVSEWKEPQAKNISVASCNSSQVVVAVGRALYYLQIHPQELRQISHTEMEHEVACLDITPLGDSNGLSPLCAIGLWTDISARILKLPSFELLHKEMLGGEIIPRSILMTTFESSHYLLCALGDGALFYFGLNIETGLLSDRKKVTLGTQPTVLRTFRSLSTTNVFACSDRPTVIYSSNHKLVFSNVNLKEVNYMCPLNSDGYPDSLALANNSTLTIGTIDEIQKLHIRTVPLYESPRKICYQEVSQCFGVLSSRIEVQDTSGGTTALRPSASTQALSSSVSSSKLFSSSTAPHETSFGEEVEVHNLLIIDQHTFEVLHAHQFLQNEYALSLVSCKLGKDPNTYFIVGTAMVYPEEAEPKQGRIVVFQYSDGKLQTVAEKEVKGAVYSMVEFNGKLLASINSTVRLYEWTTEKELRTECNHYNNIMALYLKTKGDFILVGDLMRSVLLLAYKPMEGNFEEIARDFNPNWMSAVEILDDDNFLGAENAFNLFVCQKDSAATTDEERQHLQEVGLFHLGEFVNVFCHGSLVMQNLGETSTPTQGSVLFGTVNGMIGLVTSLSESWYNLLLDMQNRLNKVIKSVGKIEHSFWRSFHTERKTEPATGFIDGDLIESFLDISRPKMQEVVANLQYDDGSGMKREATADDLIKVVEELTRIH

Ikaros expression (MFI) after six days of chronic stimulation (Ikaros): lowest
SMILES: O=C1CC[C@H](N2C(=O)c3cccc(NCc4ccc(CN5CC(N6CCOCC6)C5)cc4F)c3C2=O)C(=O)N1 [Compound C, (S)-2-(2,6-dioxopiperidin-3-yl)-4-((2-fluoro-4-((3-morpholinoazetidin-1-yl)methyl)benzyl)amino)isoindoline-1,3-dione]
CAR T cell proliferation (anti-CD19 CAR T cells [1]; 1 nM, P<0.001): decreased
CAR T cell proliferation (anti-CD19 CAR T cells [1]; 10 nM, P<0.0001): further decreased
decrease of cell doublings compared with the other compounds (anti-CD19 CAR T cells [1]; at all doses tested): greatest decrease of doublings
cell viability (percentage of live CAR T cells) (anti-CD19 CAR T cells [2]): without affecting CAR T cell viability
RL tumor cell number vs CAR T cells alone or compound alone (RL CD19+ tumor cells; compound at 0.001 μM with anti-CD19 CAR T cells): lower
RL tumor cell number vs CAR T cells alone or compound alone (RL CD19+ tumor cells; compound at 0.01 μM with anti-CD19 CAR T cells): lower
RL tumor cell number vs CAR T cells alone or compound alone (RL CD19+ tumor cells; compound at 0.1 μM with anti-CD19 CAR T cells): lower
IFNγ production in supernatant five days after re-challenge ([3]; 1 nM concurrently during chronic stimulation, P<0.0001): improved IFNγ production
cytolytic activity during re-challenge (tumor spheroid volume) ([3]; 1 nM during six-day chronic stimulation (concurrent), P<0.0001): improved
IFNγ production in supernatant five days after re-challenge ([3]; 10 nM during chronic stimulation, P<0.001, lesser extent than 1 nM): increased IFNγ production
tumor size at day 9 of co-culture ([3]; 10 nM during six-day chronic stimulation (concurrent), P<0.05, lesser extent than 1 nM): reduced tumor size
CD27/CCR7 expression ([4]; 50 nM for one day and 1 nM for the remaining six days of stimulation, P<0.05): highest
percentage of CD27+/CCR7+ cells vs stimulation in the absence of compound ([4]; seven days of chronic stimulation in the presence of compound): higher percentages of CD27+/CCR7+ cells
